Assay results published in BigSolDB 2.1.

## COc1ccc(C(=O)O)cc1OC
In 2-butanone, 278.95 K
  solubility (mole fraction): 0.0068
In 2-butanone, 283.15 K
  solubility (mole fraction): 0.0077
In 2-butanone, 287.95 K
  solubility (mole fraction): 0.0089
In 2-butanone, 293.32 K
  solubility (mole fraction): 0.0104
In 2-butanone, 298.13 K
  solubility (mole fraction): 0.012
In 2-butanone, 303.15 K
  solubility (mole fraction): 0.014
In 2-butanone, 308.37 K
  solubility (mole fraction): 0.0162
In 2-butanone, 313.05 K
  solubility (mole fraction): 0.0184
In 2-butanone, 318.15 K
  solubility (mole fraction): 0.0212
In 2-butanone, 323.49 K
  solubility (mole fraction): 0.0246
In ethanol, 278.15 K
  solubility (mole fraction): 0.0035
In ethanol, 282.93 K
  solubility (mole fraction): 0.0042
In ethanol, 288.21 K
  solubility (mole fraction): 0.0051
In ethanol, 293.08 K
  solubility (mole fraction): 0.0062
In ethanol, 298 K
  solubility (mole fraction): 0.0074
In ethanol, 303.33 K
  solubility (mole fraction): 0.0093
In ethanol, 307.9 K
  solubility (mole fraction): 0.011
In ethanol, 313.3 K
  solubility (mole fraction): 0.0136
In ethanol, 317.15 K
  solubility (mole fraction): 0.0161
In ethanol, 323.3 K
  solubility (mole fraction): 0.0203
In ethyl acetate, 278.3 K
  solubility (mole fraction): 0.0037
In ethyl acetate, 283.01 K
  solubility (mole fraction): 0.0044
In ethyl acetate, 288.05 K
  solubility (mole fraction): 0.0052
In ethyl acetate, 293.15 K
  solubility (mole fraction): 0.0061
In ethyl acetate, 298 K
  solubility (mole fraction): 0.0072
In ethyl acetate, 303.13 K
  solubility (mole fraction): 0.0083
In ethyl acetate, 308.07 K
  solubility (mole fraction): 0.0099
In ethyl acetate, 313.15 K
  solubility (mole fraction): 0.0116
In ethyl acetate, 318.06 K
  solubility (mole fraction): 0.0133
In ethyl acetate, 323.37 K
  solubility (mole fraction): 0.0157
In isobutanol, 277.9 K
  solubility (mole fraction): 0.0015
In isobutanol, 283.25 K
  solubility (mole fraction): 0.002
In isobutanol, 288.15 K
  solubility (mole fraction): 0.0026
In isobutanol, 293.04 K
  solubility (mole fraction): 0.0032
In isobutanol, 298.15 K
  solubility (mole fraction): 0.0041
In isobutanol, 302.94 K
  solubility (mole fraction): 0.0052
In isobutanol, 308.1 K
  solubility (mole fraction): 0.0066
In isobutanol, 313.15 K
  solubility (mole fraction): 0.0083
In isobutanol, 318.01 K
  solubility (mole fraction): 0.0105
In isobutanol, 323.33 K
  solubility (mole fraction): 0.0132
In isopropanol, 278.37 K
  solubility (mole fraction): 0.0024
In isopropanol, 283.05 K
  solubility (mole fraction): 0.003
In isopropanol, 288.39 K
  solubility (mole fraction): 0.0039
In isopropanol, 294.07 K
  solubility (mole fraction): 0.0051
In isopropanol, 299 K
  solubility (mole fraction): 0.0063
In isopropanol, 303.17 K
  solubility (mole fraction): 0.0074
In isopropanol, 308.27 K
  solubility (mole fraction): 0.0095
In isopropanol, 313.13 K
  solubility (mole fraction): 0.0118
In isopropanol, 318.15 K
  solubility (mole fraction): 0.015
In isopropanol, 323.2 K
  solubility (mole fraction): 0.0183
In methyl acetate, 278.3 K
  solubility (mole fraction): 0.0042
In methyl acetate, 283.01 K
  solubility (mole fraction): 0.0049
In methyl acetate, 288.05 K
  solubility (mole fraction): 0.0058
In methyl acetate, 293.15 K
  solubility (mole fraction): 0.0068
In methyl acetate, 298 K
  solubility (mole fraction): 0.008
In methyl acetate, 303.13 K
  solubility (mole fraction): 0.0095
In methyl acetate, 308.07 K
  solubility (mole fraction): 0.0111
In methyl acetate, 313.15 K
  solubility (mole fraction): 0.0131
In methyl acetate, 318.06 K
  solubility (mole fraction): 0.0152
In methyl acetate, 323.37 K
  solubility (mole fraction): 0.0177
In n-butanol, 277.9 K
  solubility (mole fraction): 0.0025
In n-butanol, 283.25 K
  solubility (mole fraction): 0.003
In n-butanol, 288.15 K
  solubility (mole fraction): 0.0037
In n-butanol, 293.04 K
  solubility (mole fraction): 0.0046
In n-butanol, 298.15 K
  solubility (mole fraction): 0.0057
In n-butanol, 302.94 K
  solubility (mole fraction): 0.007
In n-butanol, 308.1 K
  solubility (mole fraction): 0.0089
In n-butanol, 313.15 K
  solubility (mole fraction): 0.011
In n-butanol, 318.01 K
  solubility (mole fraction): 0.0134
In n-butanol, 323.33 K
  solubility (mole fraction): 0.0168
In n-propanol, 278.37 K
  solubility (mole fraction): 0.0027
In n-propanol, 283.05 K
  solubility (mole fraction): 0.0033
In n-propanol, 288.39 K
  solubility (mole fraction): 0.0042
In n-propanol, 293.3 K
  solubility (mole fraction): 0.0051
In n-propanol, 299 K
  solubility (mole fraction): 0.0066
In n-propanol, 303.17 K
  solubility (mole fraction): 0.0079
In n-propanol, 308.27 K
  solubility (mole fraction): 0.0097
In n-propanol, 313.13 K
  solubility (mole fraction): 0.0118
In n-propanol, 318.15 K
  solubility (mole fraction): 0.0146
In n-propanol, 323.2 K
  solubility (mole fraction): 0.0177

## O=C(O)c1cc(O)c(O)c(O)c1
In water, 292.18 K
  solubility (mole fraction): 0.00098
In water, 298 K
  solubility (mole fraction): 0.0011
In water, 303.09 K
  solubility (mole fraction): 0.00142
In water, 308.21 K
  solubility (mole fraction): 0.0019
In water, 313.04 K
  solubility (mole fraction): 0.00244
In water, 318.15 K
  solubility (mole fraction): 0.00328
In water, 323.15 K
  solubility (mole fraction): 0.00427
In water, 327.85 K
  solubility (mole fraction): 0.00523
In water, 333.15 K
  solubility (mole fraction): 0.00693
